In patent US20040019082A1, “Reversible infertility in male mice following oral administration of alkylated imino sugars: a non-hormonal approach to male contraception” (United Therapeutics Corporation, priority 2002, published 2004):

What was measured:
[1] = test system: female mice of strain 129; assay: Fertility of treated female mice of strain 129; type: in vivo, mouse; details: 2400 mg/kg day for 12 weeks, 15 week-old females, caged with untreated males
Experimental: NB-DNJ was administered at 2400 mg/kg day for 12 weeks to 15 week-old female mice of strain 129. After this, the drug was withdrawn and the females were caged with untreated males of strain 129. […] The mice in this experiment were heterozygous for a disruption in the gene encoding ceramide galactosyltransferase. These mice are phenotypically indistinguishable from wild-type 129 mice and reproduce normally (Coetzee et al., (1996), Cell, 86:209-219).

[2] = Body, gonad and organ weights of treated mice; type: in vivo, mouse
epididymal spermatozoa [3] = assay: Electron microscopy of epididymal spermatozoa; type: in vivo, mouse
Experimental: For scanning electron microscopy, dried smears of murine spermatozoa were prepared as described above. Cells were fixed for 20 min in 4% paraformaldehyde in PBS, transferred to 70, 80 and 95% ethanol, critical-point dried in a Polaron CPD7501 instrument, gold-coated using a Nanotech Semprep2, and examined in a Hitachi S800 FEG-SEM at 3 kV. For transmission electronmicroscopy epididymal spermatozoa were collected in 1 mg/ml cold water soluble polyvinylalcohol in PBS, and spun for 10 min. at 600×g. Pelleted cells were fixed overnight at 4° C. with 1% glutaraldehyde, 0.2% picric acid in 0.2 M cacodylic acid pH 7.4, washed once in 0.1 M cacodylic acid pH 7.4, and stored in 70% ethanol. Cells were postfixed with 2% osmium letroxide, embedded in araldite, sectioned at 70 nm, stained with uranyl acetate/lead citrate, and examined with a JEOL JEM-100CX microscope at 80 kV.

epididymal spermatozoa [4] = assay: Computer-assisted sperm motility analysis; type: in vivo, mouse; details: mean ± SD, n ≧ 3
Experimental: Motility analysis. Mice were terminated by asphyxiation in CO2 and cervical dislocation, and caudae epididymides were removed with vasa deferentia. Spermatozoa were collected in pre-warmed M2 medium (Sigma) by stripping the vasa deferentia and by applying mild pressure to the caudae epididymides; the cells were incubated at 37° C. for 1 hour, and videographed using a Leica DM IRB microscope fitted with a JVC TK-1281 camera. Computer-assisted sperm motility analysis was performed using a Hobson Sperm Tracker (Hobson Vision Ltd., UK) at 50 frames per second. Motility parameters of each sperm sample were measured in triplicate, collecting data from 200 sperm tracks per determination.

alpha-glucosidase 1 = target: T1, alpha-glucosidase 1 (Homo sapiens, UniProt Q13724); details: involved in N-glycan synthesis; cited from earlier work
T1 sequence (Q13724 1-837): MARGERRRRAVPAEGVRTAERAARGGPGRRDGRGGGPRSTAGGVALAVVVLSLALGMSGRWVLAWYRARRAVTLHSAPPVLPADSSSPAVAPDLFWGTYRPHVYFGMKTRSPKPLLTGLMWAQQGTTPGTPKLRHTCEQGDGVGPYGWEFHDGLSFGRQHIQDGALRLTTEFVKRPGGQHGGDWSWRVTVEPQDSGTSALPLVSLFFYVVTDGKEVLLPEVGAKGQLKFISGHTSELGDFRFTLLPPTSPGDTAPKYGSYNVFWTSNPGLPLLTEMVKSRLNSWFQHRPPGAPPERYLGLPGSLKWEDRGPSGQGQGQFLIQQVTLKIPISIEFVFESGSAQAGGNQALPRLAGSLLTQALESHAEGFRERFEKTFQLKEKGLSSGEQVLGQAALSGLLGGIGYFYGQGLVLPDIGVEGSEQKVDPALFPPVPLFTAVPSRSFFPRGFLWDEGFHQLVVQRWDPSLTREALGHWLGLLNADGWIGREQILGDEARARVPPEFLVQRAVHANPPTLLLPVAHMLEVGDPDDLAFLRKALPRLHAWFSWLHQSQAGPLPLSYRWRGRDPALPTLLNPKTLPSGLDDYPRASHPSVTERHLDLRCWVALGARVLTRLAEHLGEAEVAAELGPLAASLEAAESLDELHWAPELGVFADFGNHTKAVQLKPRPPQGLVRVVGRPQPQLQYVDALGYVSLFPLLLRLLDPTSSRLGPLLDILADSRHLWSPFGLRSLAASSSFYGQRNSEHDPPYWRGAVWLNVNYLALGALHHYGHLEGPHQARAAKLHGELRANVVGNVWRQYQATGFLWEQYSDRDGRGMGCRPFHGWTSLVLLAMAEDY

[5] = humans; cited from earlier work
[6] = test system: mouse models with impaired GSL degradation; details: in vivo; cited from earlier work
[7] = highest dose (2400 mg/kg/day), n=10

CCCCN1C[C@H](O)[C@@H](O)[C@H](O)[C@H]1CO [NB-DNJ, N-butyldeoxynojirimycin]
average litter size [1]: 6 pups | pregnancy after drug withdrawal [1]: All females quickly became pregnant | weights of testes and epididymal compartments ([2]; 1200 and 2400 mg/kg/day): decreased proportionally to body weight | combined cauda epididymis/vas deferens weight [2, 7]: 43±7 % of control | whole body weight [2, 7]: 60±5 % of control | body or gonad weights ([2]; low dose, 15-150 mg/kg/day): did not affect | tails and mitochondria of epididymal spermatozoa (epididymal spermatozoa [3]; 1,200 mg/kg/day (FIG. 5)): induced a number of abnormalities | acrosomal elements covering the nuclei, ultrastructural level (epididymal spermatozoa [3]; 1,200 mg/kg/day (FIGS. 5D-5F)): no typical acrosomal elements were seen | % motile (epididymal spermatozoa [4]; NB-DNJ 15 mg/kg/day): 26 ± 16% | VCL, curvilinear velocity (epididymal spermatozoa [4]; NB-DNJ 15 mg/kg/day): 74 ± 31 μm/sec | VSL, straight line velocity (epididymal spermatozoa [4]; NB-DNJ 15 mg/kg/day): 27 ± 9 μm/sec | % motile (epididymal spermatozoa [4]; NB-DNJ 150 mg/kg/day): 15 ± 6% | VCL, curvilinear velocity (epididymal spermatozoa [4]; NB-DNJ 150 mg/kg/day): 89 ± 31 μm/sec | VSL, straight line velocity (epididymal spermatozoa [4]; NB-DNJ 150 mg/kg/day): 27 ± 8 μm/sec | % motile (epididymal spermatozoa [4]; NB-DNJ 1200 mg/kg/day): 17 ± 7% | VCL, curvilinear velocity (epididymal spermatozoa [4]; NB-DNJ 1200 mg/kg/day): 49 ± 17 μm/sec | VSL, straight line velocity (epididymal spermatozoa [4]; NB-DNJ 1200 mg/kg/day): 18 ± 9 μm/sec | % motile (epididymal spermatozoa [4]; NB-DNJ 2400 mg/kg/day): 9 ± 2% | VCL, curvilinear velocity (epididymal spermatozoa [4]; NB-DNJ 2400 mg/kg/day): 28 ± 21 μm/sec | VSL, straight line velocity (epididymal spermatozoa [4]; NB-DNJ 2400 mg/kg/day): 9 ± 5 μm/sec | inhibition of alpha-glucosidase 1 (alpha-glucosidase 1): potent inhibitor | tolerability [5]: well tolerated | therapeutic effect [6]: therapeutically effective
